In patent US6387427B1, “Method of preservation of a food product” (Nestec S.A., priority 2000, dated 2002):

Experiments:
Assay type in all cases: cell-based
[1] = tested on: Listeria monocytogenes strains; test: Challenge test in mashed potato, L. monocytogenes cocktail; settings: for Microbial growth: mashed potato pH 5.6, 0.5%, 12° C.
Experimental: (§1) Five hundred grams of mashed potato were added to 500 g of distilled water and mixed thoroughly. The pH of the mixture was adjusted to pH 5.6 with 1N HCl. Three separate samples of 300 g of mashed potato were added with respectively, 0.5 % commercial sodium acetate, 0.5% of freeze dried fermentate and a control with no acetate. The three mashed potato samples (respectively with commercial acetate, fermentate and control) were heated at 70° C. for 5 min in a microwave and then dispatched aseptically in separate aliquots of 30 g each. The pH of all samples was checked before inoculation. Triplicate samples of each the three mashed potato aliquots were inoculated with 10^3-10^4 colony forming units per gram (cfu/g) of Gram-negative bacterial cocktail (3 E. Coli strains and 3 Salmonella strains), or L. monocytogenes cocktail and incubated at 12° C. for 2 weeks. Periodically, samples were withdrawn and bacterial counts were enumerated using BHI agar and incubated at 30° C. for 48 hours.
To confirm the effectiveness of the two sources of sodium acetate against Listeria monocytogenes strains, another challenge experiment in mashed potato was performed.

[2] = tested on: Gram-negative bacterial cocktail (3 E. Coli strains and 3 Salmonella strains); test: Challenge test in mashed potato, Gram-negative cocktail; settings: 12° C.; for Microbial growth: mashed potato pH 5.6, 0.5%
Experimental: as §1
To confirm the effectiveness of the two sources of sodium acetate against Gram-negative bacteria, a cocktail of Gram-negative bacteria was used in a challenge experiment in mashed potato.

[3] = tested on: challenge bacteria (L. monocytogenes, B. cereus, E. coli, S. typhimurium); test: Challenge test in BHI broth, challenge bacteria overall; settings: neutral pH (6.5 to 7.0) and 30° C.
Experimental: (§2) Commercial sodium acetate (Sigma) and the freeze-dried fermentate of the invention (pH 5.0) were tested in Brain Heart Infusion broth (BHI), using single and cocktail tests. BHI was added with:
(§3) (a) commercial sodium acetate at final concentrations of 0.25 and 0.5%;
(§4) (b) freeze dried fermentate (pH 5.0) at final concentrations of sodium acetate of 0.25 to 0.5%; and,
(§5) (c) a control sample consisted of BHI broth without sodium acetate.
(§6) For first samples, the pH of BHI broth with or without sodium acetate was adjusted to 5.6 with HCl (10%) and the samples filter-sterilized ([…], Millipore). For comparative samples, the pH was controlled at 7.0 and the sample filtered-sterilized.
(§7) The freeze-dried product was evaluated for its inhibitory actions against Gram-negative Gram-positive bacteria. Twenty-mL samples were inoculated with 10^4-10^5 cfu/mL of L. monocytogenes, B. cereus, E. coli, or S. typhimurium alone and combined. The samples were incubated at two conditions: at 30° C. for 24 h, and at 12° C. for 2 weeks.
(§8) The control samples consisted of samples with and without commercial sodium acetate.

[4] = tested on: Cocktail (L. monocytogenes, Bacillus cereus, Escherichia coli, S. typhimurium); test: Challenge test in BHI broth, bacterial cocktail; settings: for Bacterial growth (optical density 550 nm after 12 days): pH 5.6, 12° C.
Experimental: as §2, §3, §4, §5, §6, §7, §8
An additional challenge test was carried out on the bacterial cocktail strains of Listeria monocytogenes, Escheriachia coli, Bacillus cereus, and Salmonella typhimurium.

Bacillus cereus = test: Challenge test in BHI broth, single strain; settings: for Bacterial growth (optical density 550 nm after 12 days): pH 5.6, 12° C.
Experimental: as §2, §3, §4, §5, §6, §7, §8

Listeria monocytogenes = test: Challenge test in BHI broth, single strain; settings: for Bacterial growth (optical density 550 nm after 12 days): pH 5.6, 12° C.
Experimental: as §2, §3, §4, §5, §6, §7, §8

Salmonella typhimurium = test: Challenge test in BHI broth, single strain; settings: for Bacterial growth (optical density 550 nm after 12 days): pH 5.6, 12° C.
Experimental: as §2, §3, §4, §5, §6, §7, §8

Escherichia coli = test: Challenge test in BHI broth, single strain; settings: for Bacterial growth (optical density 550 nm after 12 days): pH 5.6, 12° C.
Experimental: as §2, §3, §4, §5, §6, §7, §8

[5] = 0.25% sodium acetate, pH 5.6, 30° C.
[6] = 0.25% sodium acetate, pH 7.0, 30° C.
[7] = 0.5% sodium acetate, pH 5.6, 30° C.
[8] = 0.5% sodium acetate, pH 7.0, 30° C.

`CC(=O)[O-].[Na+]` [C, sodium acetate] was tested, and the Microbial growth ([1]; day 0) was 3.1 Log10 cfu/g, the Microbial growth ([1]; day 2) was 4.4 Log10 cfu/g and the Microbial growth ([1]; day 5) was 4.3 Log10 cfu/g. The Microbial growth ([1]; day 7) was 4.9 Log10 cfu/g, the Microbial growth ([1]; day 14) was 7.5 Log10 cfu/g and the “Delay of growth of Listeria monocytogenes (in words)” value ([1]; mashed potato, 14 days of incubation at 12° C.) was “unable to delay the growth of this organism for more than a week”. For the same compound, the Microbial growth ([2]; day 0) was 4.6 Log10 cfu/g, the Microbial growth ([2]; day 2) was 4.6 Log10 cfu/g and the Microbial growth ([2]; day 5) was 4.5 Log10 cfu/g. The Microbial growth ([2]; day 7) was 4.5 Log10 cfu/g, the Microbial growth ([2]; day 9) was 4.1 Log10 cfu/g and the “Inhibitory effectiveness on growth of Gram-negative cocktail (in words)” value ([2]; mashed potato) was “inhibitory effectiveness”. For the same compound, the “Inhibition of the challenge bacteria (in words)” value [3] was “neither commercial sodium acetate nor the fermentate inhibit”, the “Bacterial growth (optical density 550 nm after 12 days)” value ([4]; 0.25% sodium acetate) was 0.287 and the “Bacterial growth (optical density 550 nm after 12 days)” value ([4]; 0.5% sodium acetate) was 0.266. For the same compound, the “Inhibition of the bacterial cocktail (in words)” value ([4]; pH 5.6 and at 2° C. (so in the source), both concentrations) was “failed to inhibit”, the “Bacterial growth (optical density 550 nm after 12 days)” value (Bacillus cereus; 0.25% sodium acetate) was 0.017 and the “Bacterial growth (optical density 550 nm after 24 hrs)” value (Bacillus cereus; [5]) was 0.068. The “Bacterial growth (optical density 550 nm after 24 hrs)” value (Bacillus cereus; [6]) was 0.325, the “Bacterial growth (optical density 550 nm after 12 days)” value (Bacillus cereus; 0.5% sodium acetate) was 0.017 and the “Bacterial growth (optical density 550 nm after 24 hrs)” value (Bacillus cereus; [7]) was 0.042. For the same compound, the “Bacterial growth (optical density 550 nm after 24 hrs)” value (Bacillus cereus; [8]) was 0.315, the “Inhibitory effect on growth (in words)” value (Bacillus cereus; pH 5.6 and below) was “exhibited inhibitory effects” and the “Bacterial growth (optical density 550 nm after 12 days)” value (Listeria monocytogenes; 0.25% sodium acetate) was 0.212. The “Bacterial growth (optical density 550 nm after 24 hrs)” value (Listeria monocytogenes; [5]) was 0.216, the “Bacterial growth (optical density 550 nm after 24 hrs)” value (Listeria monocytogenes; [6]) was 0.429 and the “Bacterial growth (optical density 550 nm after 12 days)” value (Listeria monocytogenes; 0.5% sodium acetate) was 0.220. The “Bacterial growth (optical density 550 nm after 24 hrs)” value (Listeria monocytogenes; [7]) was 0.063, the “Bacterial growth (optical density 550 nm after 24 hrs)” value (Listeria monocytogenes; [8]) was 0.399 and the “Bacterial growth (optical density 550 nm after 12 days)” value (Salmonella typhimurium; 0.25% sodium acetate) was 0.010. For the same compound, the “Bacterial growth (optical density 550 nm after 24 hrs)” value (Salmonella typhimurium; [5]) was 0.089, the “Bacterial growth (optical density 550 nm after 24 hrs)” value (Salmonella typhimurium; [6]) was 0.645 and the “Bacterial growth (optical density 550 nm after 12 days)” value (Salmonella typhimurium; 0.5% sodium acetate) was 0.013. The “Bacterial growth (optical density 550 nm after 24 hrs)” value (Salmonella typhimurium; [7]) was 0.020, the “Bacterial growth (optical density 550 nm after 24 hrs)” value (Salmonella typhimurium; [8]) was 0.600 and the “Inhibitory effect on growth (in words)” value (Salmonella typhimurium; pH 5.6 and below) was “exhibited inhibitory effects”. The “Bacterial growth (optical density 550 nm after 12 days)” value (Escherichia coli; 0.25% sodium acetate) was 0.017, the “Bacterial growth (optical density 550 nm after 24 hrs)” value (Escherichia coli; [5]) was 0.231 and the “Bacterial growth (optical density 550 nm after 24 hrs)” value (Escherichia coli; [6]) was 0.589. The “Bacterial growth (optical density 550 nm after 12 days)” value (Escherichia coli; 0.5% sodium acetate) was 0.013, the “Bacterial growth (optical density 550 nm after 24 hrs)” value (Escherichia coli; [7]) was 0.099 and the “Bacterial growth (optical density 550 nm after 24 hrs)” value (Escherichia coli; [8]) was 0.587. The “Inhibitory effect on growth (in words)” value (Escherichia coli; pH 5.6 and below) was “exhibited inhibitory effects”.
